The text below walks through data of ChEMBL document CHEMBL3120093 (J Med Chem, 2014).

Data set [1] is described as follows: Permeability of the compound at PH 7.4 by PAMPA. The conditions noted are these: read-out: permeability. Format: ADME. On the technique in general: PAMPA measures passive passage across an artificial lipid membrane.
Data set [2] is described as follows: Plasma concentration in dog at […], po after 24 hrs. Details: dose 2.3 mg/kg, route oral. It counts as ADME, organism-based, Canis lupus familiaris.
The nature of data set [3]: Plasma concentration in rat at 5 mg/kg, po after 4 hrs. On the set-up: dose 5 mg/kg, route oral. Format: ADME, organism-based.
The nature of data set [4]: AUC in dog at […], po after 24 hrs. The conditions noted are these: plasma. Format: ADME, organism-based, Canis lupus familiaris. On the set-up: time < 24 hr, dose 2.3 mg/kg, route oral.
Data set [5] is described as follows: Drug uptake in rat liver at 5 mg/kg, po after 4 hrs. Details: dose 5 mg/kg, route oral. The conditions noted are these: read-out: Drug uptake. Format: ADME, organism-based.
Data set [6] in a line: AUC in rat at 5 mg/kg, po after 24 hrs. Details: time < 24 hr, dose 5 mg/kg, route oral. The settings on record: plasma. Format: ADME, organism-based.
A short description of data set [7]: AUC in rat at 5 mg/kg, po after 4 hrs. It counts as ADME, organism-based. Details: time < 4 hr, dose 5 mg/kg, route oral. The conditions noted are these: plasma.
Data set [8] can be described thus: Oral bioavailability in rat at 5 mg/kg after 24 hrs. Format: ADME, organism-based. The settings on record: in vivo.
Data set [9] in a line: Drug uptake in rat liver at 5 mg/kg, po after 24 hrs. Format: ADME, organism-based. On the set-up: dose 5 mg/kg, route oral. The conditions noted are these: read-out: Drug uptake.
A short description of data set [10]: Oral bioavailability in dog at […] after 24 hrs. Format: ADME, organism-based, Canis lupus familiaris. The settings on record: in vivo.
Data set [11] is described as follows: Plasma concentration in rat at 5 mg/kg, po after 24 hrs. Details: dose 5 mg/kg, route oral. Format: ADME, organism-based.
A short description of data set [12]: Volume of distribution in rat at 2 mg/kg, iv after 24 hrs. Format: ADME, organism-based. On the set-up: dose 2 mg/kg, route intravenous. The settings on record: in vivo.
Data set [13] in a line: Plasma concentration in dog at 3 mg/kg, po after 24 hrs. It counts as ADME, organism-based, Canis lupus familiaris. Details: dose 3 mg/kg, route oral.
A short description of data set [14]: Half life in dog at 1 mg/kg, iv after 24 hrs. The settings on record: in vivo. Details: dose 1 mg/kg, route intravenous. Format: ADME, organism-based, Canis lupus familiaris.
The test system of data set [15] is Liver microsome. Description: Metabolic stability of the compound in rat liver microsomes assessed as […] formation at 10 uM after 30 mins. It counts as ADME. The settings on record: 0.5 h. A general note: Microsomes from liver hold many membrane-bound enzymes, among them those of drug oxidation.
A short description of data set [16]: Clearance in rat at 2 mg/kg, iv after 24 hrs. Format: ADME, organism-based. Details: dose 2 mg/kg, route intravenous. The conditions noted are these: in vivo.
In data set [17] the test system is Liver microsome. Description: Metabolic stability of the compound in human liver microsomes assessed as GSH adduct formation at 10 uM after 30 mins. It counts as ADME. The settings on record: 0.5 h.
A short description of data set [18]: Half life in rat at 2 mg/kg, iv after 24 hrs. It counts as ADME, organism-based. Details: dose 2 mg/kg, route intravenous. The settings on record: in vivo.
Data set [19] is described as follows: Oral bioavailability in dog at 3 mg/kg after 24 hrs. It counts as ADME, organism-based, Canis lupus familiaris. The conditions noted are these: plasma.
Data set [20] can be described thus: Clearance in rat at 2 mg/kg, iv after 4 hrs. Format: ADME, organism-based. On the set-up: dose 2 mg/kg, route intravenous. The settings on record: in vivo.
The test system of data set [21] is Liver microsome. Description: Metabolic stability of the compound in human liver microsomes assessed as cyanide adduct formation at 10 uM after 30 mins. The settings on record: 0.5 h. Format: ADME.
The nature of data set [22]: Clearance in dog at 1 mg/kg, iv after 24 hrs. Format: ADME, organism-based, Canis lupus familiaris. Details: dose 1 mg/kg, route intravenous. The settings on record: in vivo.
Data set [23] is described as follows: AUC in dog at 3 mg/kg, po after 24 hrs. The conditions noted are these: plasma. On the set-up: time < 24 hr, dose 3 mg/kg, route oral. Format: ADME, organism-based, Canis lupus familiaris.
A short description of data set [24]: Volume of distribution in dog at 1 mg/kg, iv after 24 hrs. It counts as ADME, organism-based, Canis lupus familiaris. The conditions noted are these: in vivo. On the set-up: dose 1 mg/kg, route intravenous.
The test system of data set [25] is Liver microsome. Briefly: Metabolic stability of the compound in human liver microsomes assessed as GSH adduct formation at 10 uM after 30 mins. The settings on record: 0.5 h.
The nature of data set [26]: Clearance in mouse at 5 mg/kg, iv after 24 hrs. It counts as ADME, organism-based. Details: dose 5 mg/kg, route intravenous. The settings on record: in vivo.
Data set [27] in a line: Half life in mouse at 5 mg/kg, iv after 24 hrs. Format: ADME, organism-based. On the set-up: dose 5 mg/kg, route intravenous. The conditions noted are these: in vivo.
Data set [28] in a line: Plasma concentration in mouse at 20 mg/kg, po after 24 hrs. It counts as ADME, organism-based. Details: dose 20 mg/kg, route oral.
A short description of data set [29]: Permeability from basolateral to apical side of human Caco2 cells. Format: ADME, cell-based. The settings on record: Caco-2, read-out: permeability. (In general: Caco-2 cells form a polarised layer with tight junctions and transporters.)
Data set [30] in a line: Drug uptake in mouse liver at 20 mg/kg, po after 24 hrs. Format: ADME, organism-based. On the set-up: dose 20 mg/kg, route oral. The settings on record: read-out: Drug uptake.
The nature of data set [31]: Volume of distribution in mouse at 5 mg/kg, iv after 24 hrs. Format: ADME, organism-based. On the set-up: dose 5 mg/kg, route intravenous. The settings on record: in vivo.
Data set [32] in a line: Oral bioavailability in mouse at 20 mg/kg after 24 hrs. Format: ADME, organism-based. The settings on record: plasma.
The nature of data set [33]: Permeability from apical to basolateral side of human Caco2 cells. It counts as ADME, cell-based. The conditions noted are these: Caco-2, read-out: permeability.
The nature of data set [34]: Ratio of drug level in liver to plasma in rat at 5 mg/kg, po after 24 hrs. Format: ADME, organism-based. Details: dose 5 mg/kg, route oral.
Data set [35] in a line: AUC in mouse at 20 mg/kg, po after 24 hrs. It counts as ADME, organism-based. Details: time < 24 hr, dose 20 mg/kg, route oral. The conditions noted are these: plasma.

In general, AUC refers to concentration integrated over time. A lower AUC goes with less exposure. In general, Vd refers to the apparent volume that relates the amount in the body to the concentration in plasma or blood. Higher therefore signals wide distribution into tissue. What is called half-life is the time in which the quantity being followed falls by half. The low end stands for fast loss, the high end for slow loss. A word on the clearance: it is the rate of elimination divided by the concentration. As a reminder, the Kp is tissue or fluid exposure divided by exposure in the circulation.

Consider `COC(=O)N[C@H](C(=O)N1CCC[C@H]1c1nc(-c2ccc(-c3ccc(-c4c[nH]c([C@@H]5CCCN5C(=O)[C@@H](NC(=O)OC)C(C)C)n4)cc3)cc2)c[nH]1)C(C)C`, for which the Papp in [1] came to 49.6 ×10⁻⁶ cm/s. Moreover, the concentration at 24 h came to 26 nM in [2], 103 nM in data set [9] and 18 nM in [11]. Also, the concentration at 4 h in data set [3] stood at 661 nM; in [5], 2240 nM. In addition, the AUC at 24 h in data set [4] is 11 µM·h; in [6], 4.8 µM·h. This compound also gave an exposure (AUC) at 4 h in data set [7] of 2.18 µM·h. Also, in [8], the bioavailability stood at 50%. The bioavailability at 24 h in [10] was determined as 108%.
As for `O=C([C@@H](c1ccccc1)N1CCCCC1)N1CCC[C@H]1c1ncc(-c2ccc(-c3ccc(-c4cnc([C@@H]5CCCN5C(=O)[C@@H](c5ccccc5)N5CCCCC5)[nH]4)cc3)cc2)[nH]1`, the Papp in [1] was determined as 25.1 ×10⁻⁶ cm/s. Also, the values for the Vd in data set [12] and in data set [24] were 20 L/kg and 10 L/kg, respectively. The compound further had a concentration at 24 h in data set [13] of 8.3 nM. The half-life in data set [14] is over 12 h; in data set [18], 7.7 h. Besides, the concentration at 4 h in data set [3] is 13 nM; in [5], 1200 nM. The Stability entry with Liver microsome [15] is listed as “Unstable”; in the data set with Liver microsome [17], “Stable”; in the data set with Liver microsome [21] it was “Unstable”; with Liver microsome [25], “Stable”. Also, the clearance came to 63 mL/min/kg in data set [16], 58 mL/min/kg in [20] and 28 mL/min/kg in [22]. In data set [19], the bioavailability came to 14%. Further, the AUC at 4 h in data set [7] was 0.047 µM·h. In addition, the exposure (AUC) at 24 h in [23] was 0.272 µM·h.
Consider `COC(=O)N[C@@H](C(=O)N1CCC[C@H]1c1ncc(-c2ccc(-c3ccc(-c4cnc([C@@H]5CCCN5C(=O)[C@H]5CCCO5)[nH]4)cc3)cc2)[nH]1)c1ccccc1`, for which, in data set [1], the Papp stood at 46.4 ×10⁻⁶ cm/s. Moreover, the clearance in data set [26] stood at 5.3 mL/min/kg; in data set [16], 4.4 mL/min/kg; in data set [22], 22 mL/min/kg. Also, the Vd was determined as 0.3 L/kg in [12], 1.9 L/kg in data set [31] and 7.5 L/kg in data set [24]. Also, the concentration at 24 h in data set [13] turned out to be 6 nM; in data set [28], 59 nM; in data set [30] it was 253 nM; in data set [9], 116 nM; in [11], 4.5 nM. Moreover, the half-life in data set [14] is over 10 h; in [27], 2.9 h; in [18], 6.9 h. The concentration at 4 h in data set [3] was 234 nM; in data set [5] it was 2570 nM. Also, the Papp B→A in data set [29] worked out at 10.5 ×10⁻⁶ cm/s. Further, the bioavailability in data set [32] was 17%; in data set [19] it was 45%; in data set [8] it was 6.8%. The results for the AUC at 24 h in [6], in [23] and in [35] were 1.83 µM·h, 1.52 µM·h and 15.1 µM·h, respectively. The AUC at 4 h in data set [7] is 0.809 µM·h. Moreover, in data set [33], the Papp A→B was under 1.5 ×10⁻⁶ cm/s. Besides, in [34], the partition ratio (Kp) at 24 h was 26.
